Measurements taken from US8017612B2, “Piperazine compound and use thereof as a HCV polymerase inhibitor” (priority 2006, dated 2011).

Experiments:
[1] = target: T1, HCV polymerase (NS5B) type 1b (Hepatitis C virus genotype 1b, UniProt P26663); assay: Assay of enzyme (HCV polymerase) inhibitory activity, type 1b enzyme; format: biochemical, HCV BK strain (type 1b)
T1 construct: a region encoding NS5B (J Virol 1991 March, 65(3), 1105-13, 544 amino acids after deletion of 47 amino acids on the C-terminal); 6xHis (C); made in house; host or cells: Escherichia coli
Outline: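 IC50 derived from [3H]UTP incorporation into TCA-insoluble RNA, compared with and without test compound. Reaction (25 °C, 60 min, Tris pH 7.5, 5 mM MgCl2): E. coli-expressed 1b NS5B Δ47 with His tag at 0.5 μg/ml, 5 μg/ml run-off substrate RNA, ATP/GTP/CTP 50 μM, UTP 2 μM.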

[2] = target: T2, HCV polymerase (NS5B) type 1a (Hepatitis C virus genotype 1a, UniProt P26664); assay: Assay of enzyme (HCV polymerase) inhibitory activity, type 1a enzyme; format: biochemical, HCV type 1a (cloned from the blood of patients)
T2 construct: made in house; host or cells: Escherichia coli (by the 'similar method' of the 1b enzyme)
Outline: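 Reactions ran 60 min at 25° C in 20 mM Tris-HCl pH 7.5, 5 mM MgCl2, 50 mM NaCl, holding genotype 1a NS5B (1.5 μg/ml, Δ47 C-terminus, 6His), substrate RNA 5 μg/ml, UTP 2 μM with tritiated UTP and other NTPs 50 μM. IC50 derived from incorporated radiolabel in filter-trapped RNA relative to uninhibited reaction.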

[3] = HCV polymerase inhibitory activity (IC50), 1b, type 1b enzyme 0.5 μg/ml, 25° C., 60 min
[4] = HCV polymerase inhibitory activity (IC50), 1a, type 1a enzyme 1.5 μg/ml, 25° C., 60 min
[5] = HCV polymerase inhibitory activity IC50, 1b, type 1b enzyme
[6] = HCV polymerase inhibitory activity IC50, 1a, type 1a enzyme

SMILES	IC50 [1, 3]	IC50 [2, 4]	IC50 [1, 5]	IC50 [2, 6]
CC(=O)N1CCN(S(=O)(=O)c2ccc(OC(F)(F)F)cc2)[C@@H](C(=O)NCC2(O)CCCCC2)C1 [Example 621, (R)-4-acetyl-1-(4-trifluoromethoxy-benzenesulfonyl)-piperazine-2-carboxylic acid (1-hydroxy-cyclohexylmethyl)-amide]	> 1 µM	> 1 µM		
CCCc1ccc(S(=O)(=O)N2CCN(c3nc(COC)c(C(=O)O)s3)C[C@@H]2C(=O)NCc2ccc(C(C)C)cc2)cc1 [Example 394, 2-[(R)-3-(4-isopropyl-benzylcarbamoyl)-4-(4-propyl-benzenesulfonyl)-piperazin-1-yl]-4-methoxymethyl-thiazole-5-carboxylic acid]	< 0.1 µM	< 0.1 µM		
CC(=O)N1CCN(S(=O)(=O)c2ccccc2)C(C(=O)NCc2ccc(C(F)(F)F)cc2)C1 (centres unmarked) [Example 24, 4-acetyl-1-benzenesulfonyl-piperazine-2-carboxylic acid 4-trifluoromethyl-benzylamide]	> 1 µM	> 1 µM		
O=C(NCc1ccc(OC(F)F)cc1F)[C@H]1CN(c2nc3nc(C4CC4)ncc3s2)CCN1S(=O)(=O)c1ccc(C(F)(F)F)cc1 [Example 1040, (R)-4-(5-cyclopropyl-thiazolo[4,5-d]pyrimidin-2-yl)-1-(4-trifluoromethyl-benzenesulfonyl)-piperazine-2-carboxylic acid 4-difluoromethoxy-2-fluoro-benzylamide]			< 0.1 µM	< 0.1 µM
CCn1ncc2sc(N3CCN(S(=O)(=O)c4ccc(C(F)(F)F)cc4)[C@@H](C(=O)NCc4ccc(OC(F)(F)F)cc4)C3)nc2c1=O [Example 1037, (R)-4-(5-ethyl-4-oxo-4,5-dihydro-thiazolo[4,5-d]pyridazin-2-yl)-1-(4-trifluoromethyl-benzenesulfonyl)-piperazine-2-carboxylic acid 4-trifluoromethoxy-benzylamide]			< 0.1 µM	< 0.1 µM
CC(=O)N1CCN(S(=O)(=O)c2ccc(C(F)(F)F)cc2)C(C(=O)NCc2ccc(C(F)(F)F)cc2)C1 (centres unmarked) [Example 45, 4-acetyl-1-(4-trifluoromethyl-benzenesulfonyl)-piperazine-2-carboxylic acid 4-trifluoromethyl-benzylamide]	> 1 µM	> 1 µM		
CC(C)c1ncc2sc(N3CCN(S(=O)(=O)c4ccc(OC(F)(F)F)cc4)[C@@H](C(=O)NCc4ccc(OC(F)(F)F)cc4)C3)nc2n1 [Example 984, (R)-4-(5-isopropyl-thiazolo[4,5-d]pyrimidin-2-yl)-1-(4-trifluoromethoxy-benzenesulfonyl)-piperazine-2-carboxylic acid 4-trifluoromethoxy-benzylamide]			< 0.1 µM	< 0.1 µM
Cc1nc(N2CCN(S(=O)(=O)c3ccc(OC(F)(F)F)cc3)[C@@H](C(=O)NCc3ccc(C(C)(C)C)cc3)C2)sc1C#N [Example 577, (R)-4-(5-cyano-4-methyl-thiazol-2-yl)-1-(4-trifluoromethoxy-benzenesulfonyl)-piperazine-2-carboxylic acid 4-tert-butyl-benzylamide]	< 0.1 µM	< 0.1 µM		
Cc1cnc(CNC(=O)[C@H]2CN(c3cnc4cncnc4n3)CCN2S(=O)(=O)c2ccc(OC(F)(F)F)cc2)cn1 [Example 721, (R)-4-pteridin-7-yl-1-(4-trifluoromethoxy-benzenesulfonyl)-piperazine-2-carboxylic acid (5-methyl-pyrazin-2-ylmethyl)-amide]			> 1 µM	> 1 µM
O=C(NCc1c(F)c(F)c(C(F)(F)F)c(F)c1F)[C@H]1CN(c2cnc3cncnc3n2)CCN1S(=O)(=O)c1ccc(OC(F)(F)F)cc1 [Example 795, (R)-4-pteridin-7-yl-1-(4-trifluoromethoxy-benzenesulfonyl)-piperazine-2-carboxylic acid 2,3,5,6-tetrafluoro-4-trifluoromethyl-benzylamide]			< 0.1 µM	< 0.1 µM
CC(=O)N1CCN(S(=O)(=O)c2ccc(-c3ccc(Cl)cc3)cc2)C(C(=O)NCc2ccc(C(F)(F)F)cc2)C1 (centres unmarked) [Example 26, 4-acetyl-1-(4′-chloro-biphenyl-4-sulfonyl)-piperazine-2-carboxylic acid 4-trifluoromethyl-benzylamide]	> 1 µM	> 1 µM		
COCC(=O)N1CCN(S(=O)(=O)c2ccc(C(C)C)cc2)C(C(=O)NCc2ccc(C(F)(F)F)cc2)C1 (centres unmarked) [Example 57, 1-(4-isopropyl-benzenesulfonyl)-4-(2-methoxy-acetyl)-piperazine-2-carboxylic acid 4-trifluoromethyl-benzylamide]	> 1 µM	> 1 µM		
CC(=O)N1CCN(S(=O)(=O)c2ccc(OC(F)(F)F)c(CCC(=O)O)c2)[C@@H](C(=O)NCc2ccc(C(C)C)cc2)C1 [Example 324, 3-{5-[(R)-4-acetyl-2-(4-isopropyl-benzylcarbamoyl)-piperazine-1-sulfonyl]-2-trifluoromethoxy-phenyl}-propionic acid]	0.1 to 1 µM	< 0.1 µM		
COC(=O)c1cnc(N2CCN(S(=O)(=O)c3ccc(C(F)(F)F)cc3)[C@@H](C(=O)NCc3ccc(C(C)C)cc3)C2)s1 [Example 302, 2-[(R)-3-(4-isopropyl-benzylcarbamoyl)-4-(4-trifluoromethyl-benzenesulfonyl)-piperazin-1-yl]-thiazole-5-carboxylic acid methyl ester]	< 0.1 µM	0.1 to 1 µM		
O=C(NCc1ccc(OC(F)F)cc1)[C@H]1CN(c2nn3ccc(=O)nc3s2)CCN1S(=O)(=O)c1ccc(OC(F)(F)F)cc1 [Example 1053, (R)-4-(7-oxo-7H-[1,3,4]thiadiazolo[3,2-a]pyrimidin-2-yl)-1-(4-trifluoromethoxy-benzenesulfonyl)-piperazine-2-carboxylic acid 4-difluoromethoxy-benzylamide]			< 0.1 µM	< 0.1 µM
Cn1ncc2sc(N3CCN(S(=O)(=O)c4ccc(C(F)(F)F)cc4)[C@@H](C(=O)NCc4ccc(OC(F)(F)F)cc4)C3)nc2c1=O [Example 1030, (R)-4-(5-methyl-4-oxo-4,5-dihydro-thiazolo[4,5-d]pyridazin-2-yl)-1-(4-trifluoromethyl-benzenesulfonyl)-piperazine-2-carboxylic acid 4-trifluoromethoxy-benzylamide]			< 0.1 µM	< 0.1 µM
CC(C)c1ccc(S(=O)(=O)N2CCN(C)CC2C(=O)NCc2ccc(C(F)(F)F)cc2)cc1 (centres unmarked) [Example 16, 1-(4-isopropyl-benzenesulfonyl)-4-methyl-piperazine-2-carboxylic acid 4-trifluoromethyl-benzylamide]	> 1 µM	> 1 µM		
CCCc1ccc(CNC(=O)[C@H]2CN(C(=O)Nc3ccccc3C(=O)OCc3ccccc3)CCN2S(=O)(=O)c2ccc(OC(F)(F)F)cc2)cc1 [Example 837, 2-{[(R)-3-(4-propyl-benzylcarbamoyl)-4-(4-trifluoromethoxy-benzenesulfonyl)-piperazine-1-carbonyl]-amino}-benzoic acid benzyl ester]			> 1 µM	> 1 µM
CCCc1ccc(CNC(=O)[C@H]2CN(c3ccc(C(=O)O)nn3)CCN2S(=O)(=O)c2ccc(OC(F)(F)F)cc2)cc1 [Example 417, 6-[(R)-3-(4-propyl-benzylcarbamoyl)-4-(4-trifluoromethoxy-benzenesulfonyl)-piperazin-1-yl]-pyridazine-3-carboxylic acid]	< 0.1 µM	< 0.1 µM		
